How the values were obtained:
[1] = tested on: A375 human malignant melanoma; test: Cell Proliferation Assay, A375; format: cell-based; conditions: A-375, A375 cell line, 72 h, CellTiter-Glo
Experimental: (§1) Compounds are tested in a cell proliferation assay using the following cell lines:
(§2) Both cell lines are maintained in DMEM/F12 (1:1) media (Gibco) supplemented with 10% FCS at 37° C. in a 5% CO2 humidified incubator.
(§3) Cells are seeded in 96-well plates at 2,000 cells/well and after 24 hours they are exposed to different concentrations of compounds in 0.83% DMSO. Cells are grown for a further 72 h, and an equal volume of CellTiter-Glo reagent (Promega) is added to each well. This lyses the cells and generates a luminescent signal proportional to the amount of ATP released (and therefore proportional to the number of cells in the well) that can be detected using a multi-well luminometer.
(§4) The EC50 is defined as the concentration at which a given compound achieves 50% inhibition of control. IC50 values are calculated using the XLfit software package (version 2.0.5).

[2] = tested on: phospho-ERK in HCT116 cell line; test: Phospho-ERK Cell-Based Assay, HCT116; conditions: Homo sapiens, HCT-116, exposure 2 h or 24 h
Experimental: Compounds are tested in a cell-based phospho-ERK ELISA using the following cell lines:
as §2
Cells are seeded in 96-well plates at 2,000 cells/well and after 24 h they are exposed to different concentrations of compounds in 0.83% DMSO. Cells are grown for a further 2 h or 24 h, fixed with formaldehyde (2% final) and permeabilised with methanol. Following blocking with TBST-3% BSA, fixed cells are incubated with primary antibody (anti-phospho ERK from rabbit) over-night at 4° C. Cells are incubated with Propidium Iodide (DNA fluorescent dye) and detection of cellular p-ERK is performed using an anti-rabbit secondary antibody conjugated to the fluorescent Alexa Fluor 488 dye (Molecular probes). The fluorescence is analysed using the Acumen Explorer (TTP Labtech), a laser-scanning microplate cytometer, and the Alexa Fluor 488 signal is normalised to the PI signal (proportional to cell number).
The EC50 is defined as the concentration at which a given compound achieves a signal half way between the baseline and the maximum response. EC50 values are calculated using the XLfit software package (version 2.0.5).

[3] = tested on: HCT116 human colorectal carcinoma; test: Cell Proliferation Assay, HCT116; format: cell-based; conditions: HCT-116, HCT116 cell line, 72 h, CellTiter-Glo
Experimental: as §1, §2, §3, §4

[4] = biological target: constitutively activated human mutant MEK1 (Homo sapiens, UniProt Q02750); test: MEK Assay (MEK Activity Assay); format: biochemical; conditions: 15 nM MEK1, 50 μM ATP, GST-ERK1 substrate, 30 minutes, HTRF; read-out: IC50 in the MEK activity assay of Example 1
Chain of constitutively activated human mutant MEK1 (Q02750 whole entry S218D/S222D, form open): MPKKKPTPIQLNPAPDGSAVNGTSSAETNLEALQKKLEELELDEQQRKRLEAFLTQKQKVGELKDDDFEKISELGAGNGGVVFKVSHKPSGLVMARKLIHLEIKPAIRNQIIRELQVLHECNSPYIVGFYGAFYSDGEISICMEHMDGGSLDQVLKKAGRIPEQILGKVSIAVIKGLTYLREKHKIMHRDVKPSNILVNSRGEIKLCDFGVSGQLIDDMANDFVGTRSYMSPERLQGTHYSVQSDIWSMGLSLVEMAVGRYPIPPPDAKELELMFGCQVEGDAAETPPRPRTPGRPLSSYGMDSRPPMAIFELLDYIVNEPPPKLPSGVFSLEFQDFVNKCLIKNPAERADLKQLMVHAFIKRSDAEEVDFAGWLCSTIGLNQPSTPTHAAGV
Experimental: Constitutively activated human mutant MEK1 expressed in insect cells is used as source of enzymatic activity at a final concentration in the kinase assay of 15 nM.
The assay is carried out for 30 minutes in the presence of 50 μM ATP using recombinant GST-ERK1 produced in E. Coli as substrate. Phosphorylation of the substrate is detected and quantified using HTRF reagents supplied by Cisbio. These consist of an anti-GST antibody conjugated to allophycocyanin (XL665) and an anti-phospho (Thr202/Tyr204) ERK antibody conjugated to europium-cryptate. These are used at a final concentration of 4 μg/ml and 0.84 μg/ml respectively. The anti-phospho antibody recognises ERK1 dually phosphorylated on Thr202 and Tyr204. When both antibodies are bound to ERK1 (i.e. when the substrate is phosphorylated), energy transfer from the cryptate to the allophycocyanin occurs following excitation at 340 nm, resulting in fluorescence being emitted that is proportional to the amount of phosphorylated substrate produced. Fluorescence is detected using a multiwell fluorimeter.
Compounds are diluted in DMSO prior to addition to assay buffer and the final DMSO concentration in the assay is 1%.
The IC50 is defined as the concentration at which a given compound achieves 50% inhibition of control. IC50 values are calculated using the XLfit software package (version 2.0.5).

EC50 [1]: < 500 nM
EC50 [2]: < 500 nM
EC50 [3]: < 500 nM
IC50 [4]: < 100 nM
Compound: O=C1NCc2cc(C(=O)NOCCO)c(Nc3ccc(I)cc3F)cc21 [Example 5, 6-(2-Fluoro-4-iodo-phenylamino)-1-oxo-2,3-dihydro-1H-isoindole-5-carboxylic acid (2-hydroxy-ethoxy)-amide]

Source: patent US8492427B2, “Isoindolones derivatives as MEK kinase inhibitors and methods of use” (Genentech, Inc., priority 2008, dated 2013)
